From patent US9540397B2, “BACE1 inhibitors” (Hoffmann-La Roche Inc., priority 2014, dated 2017)

Molecular target: T1, BACE1 (Homo sapiens, UniProt P56817)
T1 construct: endogenous in cells; host or cells: HEK293 APP cells
Test: Cellular Aβ-lowering assay (Abeta 40 AlphaLISA, HEK293 APP cells)
Assay type: cell-based
Settings: 18-20 hrs incubation, Aβ40 in culture supernatant, read-out: BACE1 cell act. Aβ40 IC50
Procedure: Cellular Aβ-lowering assay:
The Abeta 40 AlphaLISA Assay can be used. The HEK293 APP cells were seeded in 96 well Microtiter plates in cell culture medium (Iscove's, plus 10% (v/v) fetal bovine serum, penicillin/streptomycin) to about 80% confluency and the compounds were added at a 3× concentration in ⅓ volume of culture medium (final DMSO concentration was kept at 1% v/v). After 18-20 hrs incubation at 37° C. and 5% CO2 in a humidified incubator, the culture supernatants were harvested for the determination of AP 40 concentrations using Perkin-Elmer Human Amyloid beta 1-40 (high specificity) Kit (Cat#AL275C).
In a Perkin-Elmer White Optiplate-384 (Cat#6007290), 2 ul culture supernatants were combined with 2 μl of a 10× AlphaLISA Anti-hAβ Acceptor beads+Biotinylated Antibody Anti-Aβ 1-40 Mix ([…]/5 nM). After 1 hour room temperature incubation, 16 μl of a 1.25× preparation of Streptavidin (SA) Donor beads (25 μg/mL) were added and incubated for 30 minutes in the Dark. Light Emission at 615 nm was then recorded using EnVision-Alpha Reader. Levels of Aβ 40 in the culture supernatants were calculated as percentage of maximum signal (cells treated with 1% DMSO without inhibitor). The IC50 values were calculated using the Excel XLfit software.

T1 sequence (P56817 46-501): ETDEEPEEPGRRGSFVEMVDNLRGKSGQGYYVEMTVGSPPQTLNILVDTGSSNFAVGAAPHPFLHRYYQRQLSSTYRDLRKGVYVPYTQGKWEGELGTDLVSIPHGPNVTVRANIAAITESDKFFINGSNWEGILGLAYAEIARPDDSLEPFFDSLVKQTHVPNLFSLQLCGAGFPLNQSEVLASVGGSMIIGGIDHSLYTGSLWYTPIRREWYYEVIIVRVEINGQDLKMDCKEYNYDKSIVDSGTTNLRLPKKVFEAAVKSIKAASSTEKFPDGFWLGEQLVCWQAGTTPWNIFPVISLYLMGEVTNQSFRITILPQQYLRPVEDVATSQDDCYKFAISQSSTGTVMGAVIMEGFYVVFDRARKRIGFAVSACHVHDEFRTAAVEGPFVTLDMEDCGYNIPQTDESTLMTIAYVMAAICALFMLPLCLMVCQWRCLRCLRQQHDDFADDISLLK

Compound	IC50 [nM]
Cc1cc(F)cnc1C(=O)Nc1ccc(F)c([C@@]2(C)N=C(N)C(C)(C)[S@]3(=O)=NCC[C@H]23)n1 [Example 10BA, N-(6-((3aR,4R,8S)-6-amino-4,7,7-trimethyl-8-oxido-3,3a,4,7-tetrahydro-2H-isothiazolo[1,5-a][1,4]thiazin-4-yl)-5-fluoropyridin-2-yl)-5-fluoro-3-methylpicolinamide]	420
CC1(C)C(N)=N[C@](C)(c2nc(NC(=O)c3ncc(F)cc3Cl)ccc2F)[C@H]2CCN=[S@]21=O [Example 11BA, N-(6-((3aR,4R,8S)-6-amino-4,7,7-trimethyl-8-oxido-3,3a,4,7-tetrahydro-2H-isothiazolo[1,5-a][1,4]thiazin-4-yl)-5-fluoropyridin-2-yl)-3-chloro-5-fluoropicolinamide]	117
Cc1cc(Cl)cnc1C(=O)Nc1ccc(F)c([C@@]2(C)N=C(N)C(C)(C)[S@]3(=O)=NCC[C@H]23)n1 [Example 12BA, N-(6-((3aR,4R,8S)-6-amino-4,7,7-trimethyl-8-oxido-3,3a,4,7-tetrahydro-2H-isothiazolo[1,5-a][1,4]thiazin-4-yl)-5-fluoropyridin-2-yl)-5-chloro-3-methylpicolinamide]	24.2
CC1(C)C(N)=N[C@](C)(c2nc(NC(=O)c3ccc(OCF)cn3)ccc2F)[C@H]2CCN=[S@]21=O [Example 13BA, N-(6-((3aR,4R,8S)-6-amino-4,7,7-trimethyl-8-oxido-3,3a,4,7-tetrahydro-2H-isothiazolo[1,5-a][1,4]thiazin-4-yl)-5-fluoropyridin-2-yl)-5-(fluoromethoxy)picolinamide]	382
CC1(C)C(N)=N[C@](C)(c2nc(NC(=O)c3ccc(OC(F)F)cn3)ccc2F)[C@H]2CCN=[S@]21=O [Example 14BA, N-(6-((3aR,4R,8S)-6-amino-4,7,7-trimethyl-8-oxido-3,3a,4,7-tetrahydro-2H-isothiazolo[1,5-a][1,4]thiazin-4-yl)-5-fluoropyridin-2-yl)-5-(difluoromethoxy)picolinamide]	52.6
CC1(C)C(N)=N[C@](C)(c2nc(NC(=O)c3ccc(OCC(F)(F)C(F)F)cn3)ccc2F)[C@H]2CCN=[S@]21=O [Example 15BA, N-(6-((3aR,4R,8S)-6-amino-4,7,7-trimethyl-8-oxido-3,3a,4,7-tetrahydro-2H-isothiazolo[1,5-a][1,4]thiazin-4-yl)-5-fluoropyridin-2-yl)-5-(2,2,3,3-tetrafluoropropoxy)picolinamide]	557
COc1cnc(C(=O)Nc2ccc(F)c([C@@]3(C)N=C(N)C(C)(C)[S@]4(=O)=NCC[C@H]34)n2)cn1 [Example 16BA, N-(6-((3aR,4R,8S)-6-amino-4,7,7-trimethyl-8-oxido-3,3a,4,7-tetrahydro-2H-isothiazolo[1,5-a][1,4]thiazin-4-yl)-5-fluoropyridin-2-yl)-5-methoxypyrazine-2-carboxamide]	115
CC1(C)C(N)=N[C@](C)(c2nc(NC(=O)c3cnc(OC(F)F)cn3)ccc2F)[C@H]2CCN=[S@]21=O [Example 26BA, N-(6-((3aR,4R,8S)-6-amino-4,7,7-trimethyl-8-oxido-3,3a,4,7-tetrahydro-2H-isothiazolo[1,5-a][1,4]thiazin-4-yl)-5-fluoropyridin-2-yl)-5-(difluoromethoxy)pyrazine-2-carboxamide]	152
CC1(C)C(N)=N[C@](C)(c2nc(NC(=O)c3ccc(F)cn3)ccc2F)[C@H]2CCN=[S@]21=O [Example 27BA, N-(6-((3aR,4R,8S)-6-amino-4,7,7-trimethyl-8-oxido-3,3a,4,7-tetrahydro-2H-isothiazolo[1,5-a][1,4]thiazin-4-yl)-5-fluoropyridin-2-yl)-5-fluoropicolinamide]	118
CC1(C)C(N)=N[C@](C)(c2nc(NC(=O)c3ccc(C#N)cc3)ccc2F)[C@@H]2CCN=[S@@]21=O [Example 30AB, N-(6-((3aS,4R,8R)-6-amino-4,7,7-trimethyl-8-oxido-3,3a,4,7-tetrahydro-2H-isothiazolo[1,5-a][1,4]thiazin-4-yl)-5-fluoropyridin-2-yl)-4-cyanobenzamide]	14
CC1(C)C(N)=N[C@](C)(c2nc(NC(=O)c3ccc(C#N)cc3Cl)ccc2F)[C@@H]2CCN=[S@@]21=O [Example 31AB, N-(6-((3aS,4R,8R)-6-amino-4,7,7-trimethyl-8-oxido-3,3a,4,7-tetrahydro-2H-isothiazolo[1,5-a][1,4]thiazin-4-yl)-5-fluoropyridin-2-yl)-2-chloro-4-cyanobenzamide]	34
COc1cnc(C(=O)Nc2ccc(F)c([C@@]3(C)N=C(N)C(C)(C)[S@@]4(=O)=NCC(F)(F)C[C@H]34)n2)cn1 [Example 38AA, N-(6-((4aR,5R,9R)-7-amino-3,3-difluoro-5,8,8-trimethyl-9-oxido-2,3,4,4a,5,8-hexahydro-[1,4]thiazino[2,1-f][1,2]thiazin-5-yl)-5-fluoropyridin-2-yl)-5-methoxypyrazine-2-carboxamide]	295
Cc1cc(F)cnc1C(=O)Nc1ccc(F)c([C@@]2(C)N=C(N)C(C)(C)[S@@]3(=O)=NCC(F)(F)C[C@H]23)n1 [Example 39AA, N-(6-((4aR,5R,9R)-7-amino-3,3-difluoro-5,8,8-trimethyl-9-oxido-2,3,4,4a,5,8-hexahydro-[1,4]thiazino[2,1-f][1,2]thiazin-5-yl)-5-fluoropyridin-2-yl)-5-fluoro-3-methylpicolinamide]	114
CC1(C)C(N)=N[C@](C)(c2nc(NC(=O)c3ccc(C(=O)O)cn3)ccc2F)[C@H]2CC(F)(F)CN=[S@@]21=O [Example 44AA, 6-((6-((4aR,5R,9R)-7-amino-3,3-difluoro-5,8,8-trimethyl-9-oxido-2,3,4,4a,5,8-hexahydro-[1,4]thiazino[2,1-f][1,2]thiazin-5-yl)-5-fluoropyridin-2-yl)carbamoyl)nicotinic acid]	> 40
CC1(C)C(N)=N[C@](C)(c2nc(NC(=O)c3cnc(OCC(F)F)cn3)ccc2F)[C@H]2CC(F)(F)CN=[S@@]21=O [Example 46AA, N-(6-((4aR,5R,9R)-7-amino-3,3-difluoro-5,8,8-trimethyl-9-oxido-2,3,4,4a,5,8-hexahydro-[1,4]thiazino[2,1-f][1,2]thiazin-5-yl)-5-fluoropyridin-2-yl)-5-(2,2-difluoroethoxy)pyrazine-2-carboxamide]	144
CC#Cc1ccc(C(=O)Nc2ccc(F)c([C@@]3(C)N=C(N)C(C)(C)[S@@]4(=O)=NCC(F)(F)C[C@H]34)n2)nc1 [Example 47AA, N-(6-((4aR,5R,9R)-7-amino-3,3-difluoro-5,8,8-trimethyl-9-oxido-2,3,4,4a,5,8-hexahydro-[1,4]thiazino[2,1-f][1,2]thiazin-5-yl)-5-fluoropyridin-2-yl)-5-(prop-1-yn-1-yl)picolinamide]	147
Cc1cc(C#N)cnc1C(=O)Nc1ccc(F)c([C@@]2(C)N=C(N)C(C)(C)[S@@]3(=O)=NCC4(CC4)C[C@@H]23)n1 [Example 48AB, N-(6-((4aS,5R,9R)-7-amino-5,8,8-trimethyl-9-oxido-4,4a,5,8-tetrahydro-2H-spiro[[1,4]-thiazino[2,1-f][1,2]thiazine-3,1′-cyclopropan]-5-yl)-5-fluoropyridin-2-yl)-5-cyano-3-methylpicolinamide]	13
CC1(C)C(N)=N[C@](C)(c2nc(NC(=O)c3nn(C(F)F)cc3Cl)ccc2F)[C@@H]2CCN=[S@@]21=O [Example 51AB, N-(6-((3aS,4R,8R)-6-amino-4,7,7-trimethyl-8-oxido-3,3a,4,7-tetrahydro-2H-isothiazolo[1,5-a][1,4]thiazin-4-yl)-5-fluoropyridin-2-yl)-4-chloro-1-(difluoromethyl)-1H-pyrazole-3-carboxamide]	< 10
